The test concerns the target T1, human clotting factor VIIa (Homo sapiens, UniProt P08709).
T1 construct: a human clotting factor VIIa (hereinafter, “Factor VIIa”) purified sample; purchased Enzyme Research Laboratories HFVIIa
Briefly: Inhibitory activity against clotting factor VIIa (chromogenic substrate Spectrozyme FVIIa, TF/Factor VIIa enzyme solution). Conditions: human Factor VIIa 5 nmol/L with human TF 10 nmol/L, room temperature 40 minutes, 405 nm. Format: biochemical. In a few lines:
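Human Factor VIIa (5 nmol/L) with human TF (10 nmol/L) in Tris-BSA buffer pH 7.4 containing 15 mmol/L CaCl2 and cephalin, with Spectrozyme FVIIa substrate. Reaction 40 min at room temperature; 4-nitroanilide read at 405 nm. IC50 by non-linear regression over 100 μmol/L–0.1 nmol/L.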

T1 sequence (P08709 213-466 limits assumed): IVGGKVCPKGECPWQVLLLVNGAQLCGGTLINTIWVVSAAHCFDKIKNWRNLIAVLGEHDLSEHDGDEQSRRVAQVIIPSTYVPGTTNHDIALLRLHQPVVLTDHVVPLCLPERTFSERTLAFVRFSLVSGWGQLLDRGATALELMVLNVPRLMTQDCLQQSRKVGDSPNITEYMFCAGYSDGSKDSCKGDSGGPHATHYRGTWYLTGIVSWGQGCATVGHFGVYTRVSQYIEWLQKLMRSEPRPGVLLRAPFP
T1 sequence (P08709 61-212 limits assumed): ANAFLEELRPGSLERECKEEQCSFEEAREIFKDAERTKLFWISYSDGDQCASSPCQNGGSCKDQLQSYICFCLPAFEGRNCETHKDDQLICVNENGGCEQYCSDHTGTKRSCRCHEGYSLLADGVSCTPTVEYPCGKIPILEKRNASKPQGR
T1 sequence (P13726 33-295 partner): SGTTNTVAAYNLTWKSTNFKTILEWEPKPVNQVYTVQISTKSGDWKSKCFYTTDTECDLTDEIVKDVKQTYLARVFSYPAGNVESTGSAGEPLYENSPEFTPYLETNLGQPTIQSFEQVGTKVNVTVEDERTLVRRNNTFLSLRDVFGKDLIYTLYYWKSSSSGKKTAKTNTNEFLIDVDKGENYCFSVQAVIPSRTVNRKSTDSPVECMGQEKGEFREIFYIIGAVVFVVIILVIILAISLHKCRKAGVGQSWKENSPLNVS

Consider `COc1cc(C(Nc2ccc(C(=N)N)c(F)c2)c2nn(-c3ccccc3C(=O)O)c(=O)[nH]2)cc(C)n1` (racemic) [Example 173, 2-{3-[(R) and (S)-(4-carbamimidoyl-3-fluorophenylamino)-(2-methoxy-6-methylpyridin-4-yl)methyl]-5-oxo-4,5-dihydro-[1,2,4]triazol-1-yl}benzoic acid], for which the IC50 stood at 14.1 nM. The figure for `COc1cc(OCCF)c(F)c(C(Nc2ccc(C(=N)N)cc2)c2nn(-c3cccc(N)n3)c(=O)[nH]2)c1` (racemic) [Example 174, (R) and (S)-4-({[1-(6-aminopyridin-2-yl)-5-oxo-4,5-dihydro-1H-[1,2,4]triazol-3-yl]-[2-fluoro-3-(2-fluoroethoxy)-5-methoxyphenyl]methyl}amino)benzamidine acetate] is 1.8 nM. The figure for `COc1cc(C(Nc2ccc(C(=N)N)cc2)c2nn(-c3ncccc3C(=O)O)c(=O)[nH]2)c(F)c2c1OCCCO2` (racemic) [Example 176, (R) and (S)-2-{3-[(4-carbamimidoylphenylamino)-(6-fluoro-9-methoxy-3,4-dihydro-2H-benzo[b][1,4]dioxepin-7-yl)methyl]-5-oxo-4,5-dihydro-[1,2,4]triazol-1-yl}nicotinic acid] is 6.1 nM. The figure for `COc1cc(C(Nc2ccc(C(=N)N)cc2)c2nn(-c3ccccc3C(=O)O)c(=O)[nH]2)c(F)cc1OCCO` (racemic) [Example 178, (R) and (S)-2-(3-{(4-carbamimidoylphenylamino)-[2-fluoro-4-(2-hydroxyethoxy)-5-methoxyphenyl]methyl}-5-oxo-4,5-dihydro-[1,2,4]triazol-1-yl)benzoic acid] is 14.3 nM; for `CCc1cc(C(Nc2ccc(C(=N)N)cc2)c2nn(-c3ncsc3C(=O)O)c(=O)[nH]2)cc2c1OCOC2` (racemic) [Example 179, (R) and (S)-4-{3-[(4-carbamimidoylphenylamino)-(8-ethyl-4H-benzo[1,3]dioxin-6-yl)methyl]-5-oxo-4,5-dihydro-[1,2,4]triazol-1-yl}thiazole-5-carboxylic acid] it is 9.9 nM. `COc1ccc(C(Nc2ccc(C(=N)N)c(O)c2)c2nn(-c3ccccc3C(=O)O)c(=O)[nH]2)cc1OC` (racemic) [Example 183, 2-{3-[(R) and (S)-(4-carbamimidoyl-3-hydroxyphenylamino)-(3,4-dimethoxyphenyl)methyl]-5-oxo-4,5-dihydro-[1,2,4]triazol-1-yl}benzoic acid] yielded an IC50 of 10.6 nM. The figure for `COc1cc(F)c(C(Nc2ccc(C(=N)N)cc2)c2nn(-c3ncccc3F)c(=O)[nH]2)cc1OC` (racemic) [Example 184, (R) and (S)-4-({(2-fluoro-4,5-dimethoxyphenyl)-[1-(3-fluoropyridin-2-yl)-5-oxo-4,5-dihydro-1H-[1,2,4]triazol-3-yl]methyl}amino)benzamidine acetate] is 6.7 nM; for `COc1cc(C(Nc2ccc(C(=N)N)cc2)c2nn(-c3ncccc3N)c(=O)[nH]2)cnc1OC` (racemic) [Example 186, 4-{[(R) and (S)-[1-(3-Aminopyridin-2-yl)-5-oxo-4,5-dihydro-1H-[1,2,4]triazol-3-yl]-(5,6-dimethoxypyridin-3-yl)methyl]amino}benzamidine acetate] it is 4.6 nM. Regarding `COc1cc(C(Nc2ccc(C(=N)N)cc2)c2nn(-c3ncsc3C(=O)O)c(=O)[nH]2)c(F)c2c1OCCC2` (racemic) [Example 190, 4-{3-[(R) and (S)-(4-Carbamimidoylphenylamino)-(5-fluoro-8-methoxychroman-6-yl)methyl]-5-oxo-4,5-dihydro-[1,2,4]triazol-1-yl}thiazole-5-carboxylic acid], the IC50 worked out at 7.9 nM. Against the preceding compound, the IC50 is about 1.7-fold higher. Compound `COc1ccc(C(Nc2ccc(C(=N)N)cc2)c2nn(-c3ncsc3C(=O)O)c(=O)[nH]2)cc1OC` (racemic) [Example 193, (R) and (S)-4-{3-[(4-Carbamimidoylphenylamino)-(3,4-dimethoxyphenyl)methyl]-5-oxo-4,5-dihydro-[1,2,4]triazol-1-yl}-thiazole-5-carboxylic acid] returned an IC50 of 15.7 nM.

For the compound `COc1cc(F)c(C(Nc2ccc(C(=N)N)cc2)c2nn(-c3[nH]ncc3C(=O)O)c(=O)[nH]2)cc1OC` (racemic) [Example 194, (R) and (S)-5-{3-[(4-Carbamimidoylphenylamino)-(2-fluoro-4,5-dimethoxyphenyl)methyl]-5-oxo-4,5-dihydro-[1,2,4]triazol-1-yl}-1H-pyrazole-4-carboxylic acid acetate], the IC50 was determined as 74.5 nM.

In the case of `COCCOc1ccc(C(Nc2ccc(C(=N)N)cc2)c2nn(-c3ccsc3C(=O)O)c(=O)[nH]2)cc1OC` (racemic) [Example 195, 3-(3-{(R) and (S)-(4-Carbamimidoylphenylamino)-[3-methoxy-4-(2-methoxyethoxy)phenyl]methyl}-5-oxo-4,5-dihydro-[1,2,4]triazol-1-yl)thiophene-2-carboxylic acid], the IC50 was determined as 6.2 nM.

In turn, `COc1cc(OCCO)c(F)c(C(Nc2ccc(C(=N)N)cc2)c2nn(-c3ncc[nH]c3=O)c(=O)[nH]2)c1` (racemic) [Example 199, (R) and (S)-4-({[2-Fluoro-3-(2-hydroxyethoxy)-5-methoxyphenyl]-[5-oxo-1-(3-oxo-3,4-dihydropyrazin-2-yl)-4,5-dihydro-1H-[1,2,4]triazol-3-yl]methyl}amino)benzamidine acetate] yielded an IC50 of 24.1 nM. This IC50 lies about 3.9-fold higher than the previous one. The figure for `COc1cc(OCCO)c(F)c(C(Nc2ccc(C(=N)N)cc2)c2nn(-c3ncccc3N)c(=O)[nH]2)c1` (racemic) [Example 201, 4-({(R) and (S)-[1-(3-Aminopyridin-2-yl)-5-oxo-4,5-dihydro-1H-[1,2,4]triazol-3-yl]-[2-fluoro-3-(2-hydroxyethoxy)-5-methoxyphenyl]methyl}amino)benzamidine acetate] is 7.8 nM; for `COCCOc1cc(OC)cc(C(Nc2ccc(C(=N)N)cc2)c2nn(-c3ncccc3N)c(=O)[nH]2)c1F` (racemic) [Example 203, 4-({(R) and (S)-[1-(3-Aminopyridin-2-yl)-5-oxo-4,5-dihydro-1H-[1,2,4]triazol-3-yl]-[2-fluoro-5-methoxy-3-(2-methoxyethoxy)phenyl]methyl}amino)benzamidine acetate] it is 8.5 nM.

Regarding `CCc1cc(OCCCO)c(F)c(C(Nc2ccc(C(=N)N)cc2)c2nn(-c3ncccc3N)c(=O)[nH]2)c1` (racemic) [Example 205, (R) and (S)-4-({[1-(3-Aminopyridin-2-yl)-5-oxo-4,5-dihydro-1H-[1,2,4]triazol-3-yl]-[5-ethyl-2-fluoro-3-(3-hydroxypropoxy)phenyl]methyl}amino)benzamidine acetate], the midpoint of inhibition, the IC50, lay at 2.3 nM.

`COc1cc(C(Nc2ccc(C(=N)N)cc2)c2nn(-c3ccsc3C(=O)O)c(=O)[nH]2)ccc1OCCCO` (racemic) [Example 206, 3-(3-{(R) and (S)-(4-Carbamimidoylphenylamino)-[4-(3-hydroxypropoxy)-3-methoxyphenyl]methyl}-5-oxo-4,5-dihydro-[1,2,4]triazol-1-yl)thiophene-2-carboxylic acid] registered an IC50 of 5.6 nM. The value for `COc1cc(C(Nc2ccc(C(=N)N)cc2)c2nn(-c3ncccn3)c(=O)[nH]2)c(F)cc1OCCO` (racemic) [Example 208, 4-{[(R) and (S)-[2-Fluoro-4-(2-hydroxyethoxy)-5-methoxyphenyl]-(5-oxo-1-pyrimidin-2-yl-4,5-dihydro-1H-[1,2,4]triazol-3-yl)methyl]amino}benzamidine acetate] was 85.6 nM.

A word on the IC50: it is the concentration that gives 50% inhibition.

For the origin of these results see patent US7816522B2, “Triazolone derivatives” (Eisai Co., Ltd., priority 2006, dated 2010).
